Experimental data: ChEMBL document CHEMBL1131817, “Structure-based design of irreversible, tripeptidyl human rhinovirus 3C protease inhibitors containing N-methyl amino acids” (Bioorg Med Chem Lett, 1999)

Tests used:
Human rhinovirus sp. [1] = assay: In vitro antiviral activity against HRV serotype-14; type: functional, organism-based
[2] = molecular target: T1, Human rhinovirus A protease (Human rhinovirus sp.) (UniProt Q4U254); assay: Inhibitory activity against Human RhinoVirus serotype-14 3C Protease; type: functional; conditions: rhinovirus B14
T1 sequence (whole entry): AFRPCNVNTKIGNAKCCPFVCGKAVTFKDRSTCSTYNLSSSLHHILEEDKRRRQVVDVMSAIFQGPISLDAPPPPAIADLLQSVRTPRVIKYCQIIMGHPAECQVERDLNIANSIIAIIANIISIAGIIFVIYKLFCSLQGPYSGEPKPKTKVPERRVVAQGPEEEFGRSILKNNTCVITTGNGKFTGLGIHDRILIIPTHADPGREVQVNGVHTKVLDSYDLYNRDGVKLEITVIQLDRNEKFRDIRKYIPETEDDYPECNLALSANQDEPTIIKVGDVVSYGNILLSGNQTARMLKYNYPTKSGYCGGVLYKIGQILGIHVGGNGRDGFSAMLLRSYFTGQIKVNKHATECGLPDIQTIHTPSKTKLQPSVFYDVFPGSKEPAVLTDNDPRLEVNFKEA

Human rhinovirus sp. [3] = assay: Inhibitory activity against Human RhinoVirus serotype-14 3C Protease; NI means No inhibition to 50 uM; type: functional, organism-based

Compound: CCOC(=O)/C=C/[C@H](CCC(N)=O)NC(=O)[C@H](Cc1ccc(F)cc1)N(C)C(=O)[C@H](Cc1ccc2ccccc2c1)NC(=O)c1cc(C)on1
- EC50 (Human rhinovirus sp. [1]): 160 nM
- k obs / 1 [2]: 144000 M⁻¹ s⁻¹

Compound: CCOC(=O)/C=C/[C@H](CCC(N)=O)NC(=O)[C@H](Cc1ccccc1)NC(=O)[C@H](CC(C)C)N(C)C(=O)OCc1ccccc1
- k obs / 1 [2]: 100 M⁻¹ s⁻¹

Compound: CCOC(=O)/C=C/[C@H](CCC(N)=O)NC(=O)[C@H](Cc1ccccc1)N(C)C(=O)[C@@H](NC(=O)SC1CCCC1)C(C)C
- EC50 (Human rhinovirus sp. [1]): 190 nM
- k obs / 1 [2]: 22500 M⁻¹ s⁻¹

Compound: CCOC(=O)/C=C/[C@H](CCC(N)=O)NC(=O)[C@H](Cc1ccc(F)cc1)N(C)C(=O)[C@H](CC(C)C)NC(=O)c1cc(C)on1
- EC50 (Human rhinovirus sp. [1]): 400 nM
- k obs / 1 [2]: 59300 M⁻¹ s⁻¹

Compound: CCOC(=O)/C=C/[C@H](CCC(N)=O)NC(=O)[C@H](Cc1ccc(F)cc1)N(C)C(=O)[C@H](Cc1c[nH]cn1)NC(=O)c1cc(C)on1
- EC50 (Human rhinovirus sp. [1]): 1800 nM
- k obs / 1 [2]: 66000 M⁻¹ s⁻¹

Compound: CCOC(=O)/C=C/[C@H](CCC(N)=O)NC(=O)[C@H](Cc1ccccc1)N(C)C(=O)[C@H](CC(C)C)NC(=O)OCc1ccccc1
- EC50 (Human rhinovirus sp. [1]): 1000 nM
- k obs / 1 [2]: 5300 M⁻¹ s⁻¹

Compound: CCOC(=O)/C=C/[C@H](CCC(N)=O)NC(=O)[C@H](Cc1ccccc1)N(C)C(=O)[C@H](CC(C)C)NC(=O)c1cc(C)on1
- EC50 (Human rhinovirus sp. [1]): 140 nM
- k obs / 1 [2]: 108000 M⁻¹ s⁻¹

Compound: CCOC(=O)/C=C/[C@H](CCC(N)=O)NC(=O)[C@H](Cc1ccccc1)N(C)C(=O)[C@H](CC(C)C)NC(=O)SC1CCCC1
- EC50 (Human rhinovirus sp. [1]): 320 nM
- k obs / 1 [2]: 17300 M⁻¹ s⁻¹

Compound: CCOC(=O)/C=C/[C@H](CCC(N)=O)NC(=O)[C@H](Cc1ccccc1)N(C)C(=O)[C@H](CSc1ccccc1)NC(=O)SC1CCCC1
- EC50 (Human rhinovirus sp. [1]): 540 nM
- k obs / 1 [2]: 36800 M⁻¹ s⁻¹

Compound: CCOC(=O)/C=C/[C@H](CCC(N)=O)N(C)C(=O)[C@H](Cc1ccccc1)NC(=O)[C@H](CC(C)C)NC(=O)OCc1ccccc1
- k obs / 1 (Human rhinovirus sp. [3]): No inhibition

Compound: CCOC(=O)/C=C/[C@H](C[C@@H]1CCCNC1=O)NC(=O)[C@H](Cc1ccc(F)cc1)N(C)C(=O)[C@H](CC(C)C)NC(=O)c1cc(C)on1
- EC50 (Human rhinovirus sp. [1]): 30 nM
- k obs / 1 [2]: 610000 M⁻¹ s⁻¹

Compound: CCOC(=O)/C=C/[C@H](CCC(N)=O)NC(=O)[C@H](Cc1ccc(F)cc1)N(C)C(=O)[C@H](Cc1cccc2ccccc12)NC(=O)c1cc(C)on1
- EC50 (Human rhinovirus sp. [1]): 200 nM
- k obs / 1 [2]: 95800 M⁻¹ s⁻¹

Compound: CCOC(=O)/C=C/[C@H](CCC(N)=O)NC(=O)[C@H](Cc1ccccc1)NC(=O)[C@H](CC(C)C)NC(=O)OCc1ccccc1
- EC50 (Human rhinovirus sp. [1]): 540 nM
- k obs / 1 [2]: 25000 M⁻¹ s⁻¹
